pIC50: −log10 of the molar value.
Target: MAPKAPK2 (Homo sapiens, UniProt P49137)
Assay: MK2 Enzymatic Assay
Assay type: biochemical
Settings: 0.5 nM MAPKAPK2, 3 μM ATP, 2 μM Ser/Thr4 peptide, 23° C., values given as concentration bins
Description: Briefly, 5 μL of 2× (4 μM) 100% phosphorylation peptide was delivered into the control wells of a 384-well assay plate. 5 μL of 2× (1 nM) MAPKAPK2 and 2× peptide (4 μM) mixture in assay buffer was dispensed to remaining columns of assay plate using Eppendorf electronic multiple channel pipette. The assay plate was incubated for 20 minutes. 5 μL of 2× ATP (6 μM) in assay buffer was dispensed to each well and then the assay plate was lightly centrifuged. The assay plate was incubated for an additional 120 minutes.
5 μL of development reagent A was dispensed to all wells using Eppendorf electronic multiple channel pipette. After incubating the development reaction for 120 min, plates were read on a Perkin Elmer Envision instrument.
Percent phosphorylation was calculated using the following formula:
[formula] Where • C100%=Average Coumarin emission signal of the 100% Phos. Control • C0%=Average Coumarin emission signal of the 0% Phos. Control • F100%=Average Fluorescein emission signal of the 100% Phos. Control • F0%=Average Flurescein emission signal of the 0% Phos. Control

MAPKAPK2, sequence (P49137 whole entry, species assumed): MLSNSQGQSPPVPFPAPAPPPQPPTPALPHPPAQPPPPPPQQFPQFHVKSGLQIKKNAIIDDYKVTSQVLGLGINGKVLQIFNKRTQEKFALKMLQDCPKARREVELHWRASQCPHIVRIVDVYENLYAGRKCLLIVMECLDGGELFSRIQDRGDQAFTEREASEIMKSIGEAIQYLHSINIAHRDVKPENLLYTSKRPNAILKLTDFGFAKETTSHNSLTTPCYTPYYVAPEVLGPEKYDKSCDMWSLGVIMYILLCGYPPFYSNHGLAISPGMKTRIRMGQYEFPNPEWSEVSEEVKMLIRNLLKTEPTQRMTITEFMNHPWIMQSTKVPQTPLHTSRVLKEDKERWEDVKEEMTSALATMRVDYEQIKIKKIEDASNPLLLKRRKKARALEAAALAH

| SMILES | pIC50 |
| --- | --- |
| CN(C)[C@H]1CN(c2ccc3c(n2)Cn2cc(-c4ccc(C#N)cc4)cc2-c2nccn2-3)C[C@@H]1O [Compound 301, 4-(7-((3S,4S)-3-(dimethylamino)-4-hydroxypyrrolidin-1-yl)-9H-imidazo[2,1-c]pyrido[3,2-e]pyrrolo[1,2-a][1,4]diazepin-12-yl)benzonitrile] | 6.70 to 7.00 |
| CNC[C@H]1CN(c2ccc3c(c2)Cn2cc(-c4ccc(F)cc4)cc2-c2nccn2-3)C[C@H]1F [Compound 466, 1-((3S,4S)-4-fluoro-1-(12-(4-fluorophenyl)-9H-benzo[e]imidazo[2,1-c]pyrrolo[1,2-a][1,4]diazepin-7-yl)pyrrolidin-3-yl)-N-methylmethanamine] | > 7.30 |
| C[C@H](CO)NC[C@@H]1CCN(c2ccc3c(c2)Cn2cc(-c4ccc(C#N)cc4)cc2-c2nccn2-3)C1 [Compound 135, 4-(7-((S)-3-((((R)-1-hydroxypropan-2-yl)amino)methyl)pyrrolidin-1-yl)-9H-benzo[e]imidazo[2,1-c]pyrrolo[1,2-a][1,4]diazepin-12-yl)benzonitrile] | > 7.30 |
| CN(C)[C@@H]1CN(c2ccc3c(c2)Cn2cc(-c4ccc(F)cc4)cc2-c2ncnn2-3)C[C@H]1O [Compound 417, (3R,4R)-4-(dimethylamino)-1-(12-(4-fluorophenyl)-9H-benzo[e]pyrrolo[1,2-a][1,2,4]triazolo[5,1-c][1,4]diazepin-7-yl)pyrrolidin-3-ol] | 7.00 to 7.30 |
| CN1CC2(CCN(c3ccc4c(c3)Cn3cc(-c5ccc(F)cc5)cc3-c3nncn3-4)C2)C1 [Compound 332, 12-(4-fluorophenyl)-7-(2-methyl-2,6-diazaspiro[3.4]octan-6-yl)-9H-benzo[e]pyrrolo[1,2-a] [1,2,4]triazolo[3,4-c][1,4]diazepine] | > 7.30 |
| CNC[C@@H]1CN(c2ccc3c(c2)Cn2cc(-c4ccc(F)cc4)cc2-c2nccn2-3)C[C@H]1O [Compound 364, (3S,4R)-1-(12-(4-fluorophenyl)-9H-benzo[e]imidazo[2,1-c]pyrrolo[1,2-a][1,4]diazepin-7-yl)-4-((methylamino)methyl)pyrrolidin-3-ol] | > 7.30 |
| CN(C)C[C@@H]1CN(c2ccc3c(c2)Cn2cc(-c4ccc(C#N)cc4)cc2-c2nncn2-3)C[C@H]1O [Compound 108, 4-(7-((3R,4S)-3-((dimethylamino)methyl)-4-hydroxypyrrolidin-1-yl)-9H-benzo[e]pyrrolo[1,2-a][1,2,4]triazolo[3,4-c][1,4]diazepin-12-yl)benzonitrile] | > 7.30 |
| NC[C@H]1CN(c2ccc3c(c2)Cn2cc(-c4ccc(F)cc4)cc2-c2nccn2-3)C[C@@H]1O [Compound 365, (3R,4S)-4-(aminomethyl)-1-(12-(4-fluorophenyl)-9H-benzo[e]imidazo[2,1-c]pyrrolo[1,2-a] [1,4]diazepin-7-yl)pyrrolidin-3-ol] | 7.00 to 7.30 |
| Fc1ccc(-c2cc3n(c2)Cc2cc(N4CCC5(C4)CN(C4CCCC4)C5)ccc2-n2ccnc2-3)cc1 [Compound 375, 7-(2-cyclopentyl-2,6-diazaspiro[3.4]octan-6-yl)-12-(4-fluorophenyl)-9H-benzo[e]imidazo[2,1-c]pyrrolo[1,2-a][1,4]diazepine] | > 7.30 |
| CNC[C@H]1CN(c2ccc3c(c2)Cn2cc(-c4ccc(C#N)cc4)cc2-c2nncn2-3)C[C@H]1O (racemic) [Compound 73, 4-(7-(cis-3-hydroxy-4-((methylamino)methyl)pyrrolidin-1-yl)-9H-benzo[e]pyrrolo[1,2-a] [1,2,4]triazolo[3,4-c][1,4]diazepin-12-yl)benzonitrile] | > 7.30 |
| CN(C)[C@H]1CN(c2ccc3c(n2)Cn2cc(-c4ccc(F)cc4)cc2-c2nccn2-3)C[C@H]1O [Compound 432, (3R,4S)-4-(dimethylamino)-1-(12-(4-fluorophenyl)-9H-imidazo[2,1-c]pyrido[3,2-e]pyrrolo[1,2-a][1,4]diazepin-7-yl)pyrrolidin-3-ol] | 6.70 to 7.00 |
| CC1c2cc(N3C[C@@H](CN(C)C)[C@H](O)C3)ccc2-n2ccnc2-c2cc(-c3ccc(F)cc3)cn21 (stereo partly drawn) [Compound 507, (3S,4R)-4-((dimethylamino)methyl)-1-(12-(4-fluorophenyl)-9-methyl-9H-benzo[e]imidazo[2,1-c]pyrrolo[1,2-a][1,4]diazepin-7-yl)pyrrolidin-3-ol] | > 7.30 |
| CN(C)CC[C@H]1CN(c2ccc3c(c2)Cn2cc(-c4ccc(F)cc4)cc2-c2nccn2-3)C[C@@H]1O (relative stereo) [Compound 494, Trans-4-(2-(dimethylamino)ethyl)-1-(12-(4-fluorophenyl)-9H-benzo[e]imidazo[2,1-c]pyrrolo[1,2-a][1,4]diazepin-7-yl)pyrrolidin-3-ol] | > 7.30 |
| CNCC[C@H]1CN(c2ccc3c(c2)Cn2cc(-c4ccc(F)cc4)cc2-c2nccn2-3)C[C@@H]1O (relative stereo) [Compound 493, Trans-1-(12-(4-fluorophenyl)-9H-benzo[e]imidazo[2,1-c]pyrrolo[1,2-a][1,4]diazepin-7-yl)-4-(2-(methylamino)ethyl)pyrrolidin-3-ol] | > 7.30 |
| CC(C)[C@@H](CO)NC[C@H]1CCN(c2ccc3c(c2)Cn2cc(-c4ccc(F)cc4)cc2-c2nccn2-3)C1 [Compound 359, (S)-2-((((R)-1-(12-(4-fluorophenyl)-9H-benzo[e]imidazo[2,1-c]pyrrolo[1,2-a][1,4]diazepin-7-yl)pyrrolidin-3-yl)methyl)amino)-3-methylbutan-1-ol] | > 7.30 |
| CN(C)[C@H]1CCN(c2ccc3c(c2)Cn2cc(-c4ccc(C#N)cc4)cc2-c2ncnn2-3)C1 [Compound 260, (S)-4-(7-(3-(dimethylamino)pyrrolidin-1-yl)-9H-benzo[e]pyrrolo[1,2-a][1,2,4]triazolo[5,1-c][1,4]diazepin-12-yl)benzonitrile] | > 7.30 |
| CN1CC2(CCN(c3ccc4c(c3)Cn3cc(-c5ccc(F)cc5)cc3-c3nccn3-4)C2)C1 [Compound 344, 12-(4-fluorophenyl)-7-(2-methyl-2,6-diazaspiro[3.4]octan-6-yl)-9H-benzo[e]imidazo[2,1-c] pyrrolo[1,2-a][1,4]diazepine] | > 7.30 |
| CN(C)[C@H]1CCN(c2ccc3c(c2)Cn2cc(-c4ccc(F)cc4)cc2-c2nccn2-3)C1 [Compound 380, (S)-1-(12-(4-fluorophenyl)-9H-benzo[e]imidazo[2,1-c]pyrrolo[1,2-a][1,4]diazepin-7-yl)-N,N-dimethylpyrrolidin-3-amine] | > 7.30 |
| CNC[C@H]1CN(c2ccc3c(c2)Cn2cc(-c4ccc(F)cc4)cc2-c2nccn2-3)C[C@@H]1O [Compound 363, (3R,4S)-1-(12-(4-fluorophenyl)-9H-benzo[e]imidazo[2,1-c]pyrrolo[1,2-a][1,4]diazepin-7-yl)-4-((methylamino)methyl)pyrrolidin-3-ol] | > 7.30 |
| NC[C@@H]1CN(c2ccc3c(c2)Cn2cc(-c4ccc(F)cc4)cc2-c2nccn2-3)C[C@H]1O [Compound 366, (3S,4R)-4-(aminomethyl)-1-(12-(4-fluorophenyl)-9H-benzo[e]imidazo[2,1-c]pyrrolo[1,2-a] [1,4]diazepin-7-yl)pyrrolidin-3-ol] | > 7.30 |
| CN(C)C[C@@H]1CN(c2ccc3c(n2)Cn2cc(-c4ccc(F)cc4)cc2-c2nccn2-3)C[C@H]1O [Compound 436, (3S,4R)-4-((dimethylamino)methyl)-1-(12-(4-fluorophenyl)-9H-imidazo[2,1-c]pyrido[3,2-e]pyrrolo[1,2-a][1,4]diazepin-7-yl)pyrrolidin-3-ol] | > 7.30 |
